Measurements published in ChEMBL document CHEMBL3885881, “DrugMatrix”.

Species: Rattus norvegicus
Test: DrugMatrix - Regimen: Daily Repeat
Assay type: toxicity, organism-based, Sprague-Dawley
Parameters: regimen Daily Repeat, gender Male, age 6-8 weeks
Details: in vivo, po, route oral GAVAGE, vehicle .5 % CMC; for ABSOLUTE BASOPHIL / ABSOLUTE EOSINOPHIL / ABSOLUTE LYMPHOCYTE / ABSOLUTE MONOCYTE / ABSOLUTE SEGMENTED NEUTROPHIL / BASOPHIL / EOSINOPHIL / ERYTHROCYTE COUNT / HEMATOCRIT / HEMOGLOBIN / LEUKOCYTE COUNT / LYMPHOCYTE / MEAN CORPUSCULAR HEMOGLOBIN / MEAN CORPUSCULAR HEMOGLOBIN CONCENTRATION / MEAN CORPUSCULAR VOLUME / MONOCYTE / NEUTROPHIL / NUCLEATED RED BLOOD CELLS / PLATELET COUNT: tissue Blood; for ALANINE AMINOTRANSFERASE / ALBUMIN / ALKALINE PHOSPHATASE / ASPARTATE AMINOTRANSFERASE / BLOOD UREA NITROGEN / CARBON DIOXIDE / CHLORIDE / CHOLESTEROL / CREATINE PHOSPHOKINASE / CREATININE / GLUCOSE / LACTATE DEHYDROGENASE / LIPASE / PHOSPHORUS / POTASSIUM / SODIUM / TOTAL BILIRUBIN / TOTAL PROTEIN / URIC ACID: tissue Plasma
[1] = 580 mg/kg, 120 h, dose level High, time 5 day
[2] = […], 72 h, dose 2.4 mg/Kg, dose level Low, time 3 day
[3] = […], 120 h, dose 2.4 mg/Kg, dose level Low, time 5 day

## CN1C(=O)COc2c(C(=O)NC3CN4CCC3CC4)cc(Cl)cc21 (centres undefined) [AZASETRON]
[1]
  ABSOLUTE BASOPHIL: 0 CELLS/uL
  ABSOLUTE EOSINOPHIL: 63.33 CELLS/uL
  ABSOLUTE LYMPHOCYTE: 14100 CELLS/uL
  ABSOLUTE MONOCYTE: 291 CELLS/uL
  ABSOLUTE SEGMENTED NEUTROPHIL: 979 CELLS/uL
  BASOPHIL: 0%
  EOSINOPHIL: 0.33%
  ERYTHROCYTE COUNT: 6.34 x10E6/uL
  HEMATOCRIT: 38%
  HEMOGLOBIN: 15.07 G/DL
  LEUKOCYTE COUNT: 15.43 x10E3/uL
  LYMPHOCYTE: 91.67%
  MEAN CORPUSCULAR HEMOGLOBIN: 23.8 pg
  MEAN CORPUSCULAR HEMOGLOBIN CONCENTRATION: 39.67 G/DL
  MEAN CORPUSCULAR VOLUME: 60 fL
  MONOCYTE: 2%
  NEUTROPHIL: 6%
  NUCLEATED RED BLOOD CELLS: 0 /100WBC
  PLATELET COUNT: 1316.67 x10E3/uL
  ALANINE AMINOTRANSFERASE: 58.33 u/L
  ALBUMIN: 4.3 G/DL
  ALKALINE PHOSPHATASE: 295 u/L
  ASPARTATE AMINOTRANSFERASE: 101.33 u/L
  BLOOD UREA NITROGEN: 21.67 mg/dL
  CARBON DIOXIDE: 24 mmol/L
  CHLORIDE: 100.67 MEQ/L
  CHOLESTEROL: 74.33 mg/dL
  CREATINE PHOSPHOKINASE: 955.33 u/L
  CREATININE: 0.23 mg/dL
  GLUCOSE: 160 mg/dL
  LACTATE DEHYDROGENASE: 604.33 u/L
  LIPASE: 10.33 u/L
  PHOSPHORUS: 12.33 mg/dL
  POTASSIUM: 6.37 MEQ/L
  SODIUM: 144.33 MEQ/L
  TOTAL BILIRUBIN: 0.2 mg/dL
  TOTAL PROTEIN: 6.2 G/DL
  URIC ACID: 2.43 mg/dL
[2]
  ABSOLUTE BASOPHIL: 0 CELLS/uL
  ABSOLUTE EOSINOPHIL: 0 CELLS/uL
  ABSOLUTE LYMPHOCYTE: 13884.67 CELLS/uL
  ABSOLUTE MONOCYTE: 148 CELLS/uL
  ABSOLUTE SEGMENTED NEUTROPHIL: 1867.33 CELLS/uL
  BASOPHIL: 0%
  EOSINOPHIL: 0%
  ERYTHROCYTE COUNT: 5.62 x10E6/uL
  HEMATOCRIT: 34.23%
  HEMOGLOBIN: 13.3 G/DL
  LEUKOCYTE COUNT: 15.9 x10E3/uL
  LYMPHOCYTE: 87.33%
  MEAN CORPUSCULAR HEMOGLOBIN: 23.7 pg
  MEAN CORPUSCULAR HEMOGLOBIN CONCENTRATION: 38.87 G/DL
  MEAN CORPUSCULAR VOLUME: 60.97 fL
  MONOCYTE: 1%
  NEUTROPHIL: 11.67%
  NUCLEATED RED BLOOD CELLS: 0 /100WBC
  PLATELET COUNT: 1219.67 x10E3/uL
  ALANINE AMINOTRANSFERASE: 63.67 u/L
  ALBUMIN: 4.13 G/DL
  ALKALINE PHOSPHATASE: 374.67 u/L
  ASPARTATE AMINOTRANSFERASE: 87.33 u/L
  BLOOD UREA NITROGEN: 18.33 mg/dL
  CARBON DIOXIDE: 30.67 mmol/L
  CHLORIDE: 98.33 MEQ/L
  CHOLESTEROL: 73 mg/dL
  CREATINE PHOSPHOKINASE: 308.67 u/L
  CREATININE: 0.17 mg/dL
  GLUCOSE: 148.33 mg/dL
  LACTATE DEHYDROGENASE: 222 u/L
  LIPASE: 10 u/L
  PHOSPHORUS: 11.57 mg/dL
  POTASSIUM: 6.45 MEQ/L
  SODIUM: 141.9 MEQ/L
  TOTAL BILIRUBIN: 0.17 mg/dL
  TOTAL PROTEIN: 5.83 G/DL
  URIC ACID: 1.37 mg/dL
[3]
  ABSOLUTE BASOPHIL: 0 CELLS/uL
  ABSOLUTE EOSINOPHIL: 0 CELLS/uL
  ABSOLUTE LYMPHOCYTE: 13149.67 CELLS/uL
  ABSOLUTE MONOCYTE: 243.33 CELLS/uL
  ABSOLUTE SEGMENTED NEUTROPHIL: 1007 CELLS/uL
  BASOPHIL: 0%
  EOSINOPHIL: 0%
  ERYTHROCYTE COUNT: 5.6 x10E6/uL
  HEMATOCRIT: 35%
  HEMOGLOBIN: 14 G/DL
  LEUKOCYTE COUNT: 14.4 x10E3/uL
  LYMPHOCYTE: 91.33%
  MEAN CORPUSCULAR HEMOGLOBIN: 25.1 pg
  MEAN CORPUSCULAR HEMOGLOBIN CONCENTRATION: 40 G/DL
  MEAN CORPUSCULAR VOLUME: 62.67 fL
  MONOCYTE: 1.67%
  NEUTROPHIL: 7%
  NUCLEATED RED BLOOD CELLS: 0 /100WBC
  PLATELET COUNT: 1192 x10E3/uL
  ALANINE AMINOTRANSFERASE: 54.33 u/L
  ALBUMIN: 4.1 G/DL
  ALKALINE PHOSPHATASE: 274.67 u/L
  ASPARTATE AMINOTRANSFERASE: 82 u/L
  BLOOD UREA NITROGEN: 18.67 mg/dL
  CARBON DIOXIDE: 28.67 mmol/L
  CHLORIDE: 99.67 MEQ/L
  CHOLESTEROL: 72 mg/dL
  CREATINE PHOSPHOKINASE: 240 u/L
  CREATININE: 0.19 mg/dL
  GLUCOSE: 154.67 mg/dL
  LACTATE DEHYDROGENASE: 169 u/L
  LIPASE: 10 u/L
  PHOSPHORUS: 10.83 mg/dL
  POTASSIUM: 6.08 MEQ/L
  SODIUM: 143.3 MEQ/L
  TOTAL BILIRUBIN: 0.27 mg/dL
  TOTAL PROTEIN: 6 G/DL
  URIC ACID: 1.3 mg/dL
